PMC8041433 (Environmental Health Perspectives, 2021)
Where “and” joins values, the source holds several entries; their conditions need not be identical. Identical values can stand only once. Counter-ions that a name gives are not always drawn. Like-named read-outs stand apart in the source and are kept apart here.

Tests used:
[1] = molecular target: T1, recombinant human AChE (Homo sapiens, UniProt P22303); assay: biochemical
[2] = molecular target: AChE in SH-SY5Y cells (Homo sapiens, UniProt P22303); assay: cell-based
Chain of AChE in SH-SY5Y cells (P22303 32-614): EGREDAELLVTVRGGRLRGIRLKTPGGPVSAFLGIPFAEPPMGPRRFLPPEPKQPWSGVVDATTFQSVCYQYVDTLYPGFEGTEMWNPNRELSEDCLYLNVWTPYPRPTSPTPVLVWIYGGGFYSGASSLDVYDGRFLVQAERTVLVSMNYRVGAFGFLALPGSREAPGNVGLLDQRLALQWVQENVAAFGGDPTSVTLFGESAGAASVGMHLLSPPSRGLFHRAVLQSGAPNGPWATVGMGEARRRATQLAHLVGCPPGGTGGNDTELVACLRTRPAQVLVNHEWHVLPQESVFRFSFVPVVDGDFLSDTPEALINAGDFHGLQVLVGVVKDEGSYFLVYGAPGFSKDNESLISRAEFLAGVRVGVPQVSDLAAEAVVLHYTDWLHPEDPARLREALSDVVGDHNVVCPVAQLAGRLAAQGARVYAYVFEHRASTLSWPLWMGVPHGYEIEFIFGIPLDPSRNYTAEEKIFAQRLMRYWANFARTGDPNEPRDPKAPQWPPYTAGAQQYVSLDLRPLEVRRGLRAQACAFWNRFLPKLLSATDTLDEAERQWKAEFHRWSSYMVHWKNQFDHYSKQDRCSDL

[3] = molecular target: T1, recombinant human AChE

T1 sequence (P22303 32-614): as above

| SMILES | CC-v2 (curve classes) [1] | Efficacy [1] | IC50 ([1]; read-out: IC50) | CC-v2 (curve classes) [2] | IC50 ([2]; read-out: IC50) | CC-v2 (curve classes) [3] | Efficacy [3] | IC50 [3] [µM] | IC50 ([1]; IC50 (uM)) | IC50 ([2]; IC50 (uM)) |
| --- | --- | --- | --- | --- | --- | --- | --- | --- | --- | --- |
| O=S(=O)([O-])SSS(=O)(=O)[O-].[K+].[K+] [Potassium tetrathionate] | -2.2 | -73.38 | 71 µM | -2.1 | 71 µM and 79.6 µM | -2.1 | -82.524 | 71 | – | – |
| Nc1ccc(N)c(Cl)c1.O=S(=O)(O)O [2-Chloro-1,4-diaminobenzene sulfate] | -1.1 | -68.64 | 8.94 µM | -1.1 and -2.1 | 22.4 µM and 20 µM | 4 | -13.066 | – | – | – |
| O=C(C[S+]([O-])Cc1ccco1)NC/C=C\COc1cc(CN2CCCCC2)ccn1 (centres unmarked) [Lafutidine] | -2.2 | -35.592 | – | -2.1 | – | 4 | 0 | – | 34.7 µM | 38.9 µM and 27.5 µM and 17.4 µM |
| CCSCc1ccccc1OC(=O)NC [Ethiofencarb] | -1.1 | -87.381 | – | -1.1 and -2.1 | – | 4 | -27.523 | – | 20 µM | 10 µM and 17.8 µM |
| CNC(=O)O/N=C(\C)C(C)S(C)(=O)=O (centres unmarked) [Butoxycarboxim] | -2.2 | -49.747 | – | -2.1 | – | 4 | 0 | – | 794 µM | 355 µM and 398 µM and 447 µM |
| CCCCC(CC)CNC(=N)NC(=N)NCCCCCCNC(=N)NC(=N)NCC(CC)CCCC (centres unmarked) [Alexidine dihydrochloride] | -1.1 | -96.324 | – | – | – | 4 | 11.253 | – | 17.4 µM | 43.6 µM |
| O=P(Oc1ccccc1)(Oc1ccccc1)Oc1ccccc1 [Triphenyl phosphate] | -1.1 | – | – | -1.1 and -2.1 | – | -2.1 | – | – | – | 20 µM and 19.9 µM and 22.3 µM and 35.6 µM and 31.6 µM and 28.1 µM and 25.2 µM |
| COc1nn(CSP(=S)(OC)OC)c(=O)s1 [Methidathion] | 4 | 0 | – | – | – | 4 | – | – | – | 63.3 µM and 79.6 µM and 71 µM and 56.4 µM and 39.9 µM and 35.6 µM and 44.8 µM and 50.2 µM |
| N#Cc1sc2c(=O)c3ccccc3c(=O)c=2sc1C#N [Dithianon] | 4 | -13.233 | – | -2.1 | – | 4 | 0 | – | – | 44.8 µM and 63.3 µM |
| CN1C[C@H](C(=O)N[C@]2(C)O[C@@]3(O)[C@@H]4CCCN4C(=O)[C@H](Cc4ccccc4)N3C2=O)C=C2c3cccc4[nH]cc(c34)C[C@H]21 [Ergotamine D-tartrate] | – | – | – | -1.1 | – | 4 | 0 | – | 29.5 µM and 5.67 µM | 8.32 µM and 1.01 µM and 3.72 µM and 1.13 µM and 0.898 µM |
| CN(CCOc1ccc(NS(C)(=O)=O)cc1)CCc1ccc(NS(C)(=O)=O)cc1 [Dofetilide] | – | -14.56 | – | – | – | – | 0 | – | – | 17.4 µM |
| CCN1C(=CC=Cc2sc3ccccc3[n+]2CC)Sc2ccccc21.[I-] [3,3'-Diethylthiacarbocyanine iodide] | -3 | -76.506 | 19 µM | -2.1 and -2.2 | 10.7 µM and 15.1 µM | 4 | 0 | – | – | – |
| CN(C)C(=S)SC(=S)N(C)C [Tetramethylthiuram monosulfide] | 4 | – | – | – | – | 4 | – | – | – | 31.7 µM and 72.8 µM and 63.3 µM and 56.4 µM |
| O=C(O)/C=C\C(=O)O.O=C(O)/C=C\C(=O)O.c1cc(CN2CCCCC2)cc(OCCCNc2nc3ccccc3s2)c1 [Zolantidine dimaleate] | -2.1 | -71.468 | 27.5 µM | -2.1 | 13.8 µM and 15.5 µM | 4 | 0 | – | – | – |
| CCN=C1C=CC(=C(c2ccc(N(CC)CC)cc2)c2ccc(N(CC)CC)cc2)c2ccccc21.Cl [Basic Blue 7] | -1.1 | -96.089 | 19.9 µM | -2.1 | 62.9 µM and 70.6 µM and 79.2 µM | 4 | 0 | – | – | – |
| C[C@H]1[C@@H]2Cc3ccc(O)cc3[C@@]1(C)CCN2C.C[C@H]1[C@@H]2Cc3ccc(O)cc3[C@@]1(C)CCN2C.O=C(O)/C=C/C(=O)O [(+)-Metazocine fumarate (2:1)] | -2.1 | -92.558 | 33.9 µM | -1.1 | 8.52 µM and 10.7 µM and 15.2 µM | -2.1 | -75.846 | 191 | – | – |
| CNC(=O)/C=C(\C)OP(=O)(OC)OC [Monocrotophos] | -2.2 | -46.284 | – | -2.1 | – | 4 | -13.186 | – | 63.3 µM | 39.9 µM and 35.6 µM |
| Cc1ccc(CCn2c3c(c4cc(Cl)ccc42)CN(C)CC3)cn1 [Dorastine] | -2.4 | -32.475 | – | – | – | 4 | -6.925 | – | 38.9 µM | 34.7 µM and 30.9 µM |
| COc1cc2nc(N3CCN(C(=O)c4ccco4)CC3)nc(N)c2cc1OC [Prazosin] | – | -14.406 | – | – | – | – | 0 | – | – | 15.1 µM and 16.9 µM and 9.52 µM |
| CC(C)C[C@H]1C(=O)N2CCC[C@H]2[C@]2(O)O[C@](NC(=O)[C@@H]3C=C4c5cccc6[nH]c(Br)c(c56)C[C@H]4N(C)C3)(C(C)C)C(=O)N12 [Bromocriptine mesylate] | -1.1 | -70.597 | – | -1.1 | – | 4 | 0 | – | – | 5.38 µM and 2.7 µM |
| COCCCN1CCC(NC(=O)c2cc(Cl)c(N)c3c2OCC3)CC1 [Prucalopride] | -2.4 | -37.421 | – | -2.1 | – | 4 | 0 | – | – | 17.4 µM |
| CCCCCC1Nc2cc(C(F)(F)F)c(S(N)(=O)=O)cc2S(=O)(=O)N1 (centres unmarked) [Penflutizide] | -2.2 | -58.761 | – | -2.1 | – | 4 | -21.532 | – | 21.9 µM | 15.5 µM and 13.8 µM |
| O=C1c2c(O)ccc(Nc3ccc(CCO)cc3)c2C(=O)c2c([N+](=O)[O-])ccc(O)c21 [C.I. Disperse Blue 27] | -1.2 | -62.368 | 20 µM | -1.1 | 8.94 µM and 10 µM | 4 | 0 | – | – | – |
| CCN(CC)C(=O)[C@@H]1C=C2c3cccc4[nH]cc(c34)C[C@H]2N(C)C1 [Lysergide] | -2.2 | -56.682 | – | -2.1 | – | 4 | -29.643 | – | 104 µM | 73.8 µM and 93 µM |
| CCCCCCCCCCCCc1ccc(S(=O)(=O)O)cc1 [Dodecylbenzenesulfonic acid] | -2.1 and -1.1 | – | 63.3 µM and 56.4 µM and 39.9 µM | – | 79.6 µM and 89.4 µM and 71 µM | 4 | – | – | – | – |
| COc1cc2nc(N3CCN(C(=O)C4CCCO4)CC3)nc(N)c2cc1OC (centres unmarked) [Terazosin hydrochloride] | -2.2 | -49.646 | – | – | – | 4 | 0 | – | 38.9 µM | 30.9 µM and 27.5 µM |
| CCOP(=S)(OCC)SCSCC [Phorate] | 4 | -23.652 | – | -2.1 | – | 4 | 0 | – | – | 63.3 µM and 71 µM |
